Measured values reported in patent publication US20100267561A1, “HERBICIDAL PYRIDAZINONE DERIVATIVES” (priority 2007, published 2010).

Tests used:
Format in all cases: in vivo
[1] = system: winter barley (Hordeum vulgare); assay: Test B postemergence plant response; details: for Plant response rating, Barley: Postemergence
In short: (§1)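 Visual injury score from 0 (none) to 100 (complete control) versus controls, taken 13 to 15 days after treatment in the greenhouse; chemicals applied postemergence, as formulated, to plants of 1- to 4-leaf stage (2 to 18 cm tall); dash denotes no test result.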

[2] = system: canarygrass (Phalaris minor); assay: Test B postemergence plant response; details: for Plant response rating, Canarygrass: Postemergence
In short: as §1

[3] = system: windgrass (Apera spica-venti); assay: Test B postemergence plant response; details: for Plant response rating, Windgrass: Postemergence
In short: as §1

[4] = system: chickweed (Stellaria media); assay: Test B postemergence plant response; details: for Plant response rating, Chickweed: Postemergence
In short: as §1

[5] = system: pigweed (Amaranthus retroflexus); assay: Test A pre-/postemergence plant response
In short: (§2)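 Ratings run 0–100 (100 = complete control), assigned visually against untreated controls roughly 10 days after treatment in a greenhouse. Compounds, formulated in non-phytotoxic solvent containing surfactant, were applied as a soil-directed preemergence spray and concurrently postemergence to one- to two-leaf plants 2–10 cm tall.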

[6] = system: barnyardgrass (Echinochloa crus-galli); assay: Test A pre-/postemergence plant response
In short: as §2

[7] = system: morningglory (Ipomoea coccinea); assay: Test A pre-/postemergence plant response
In short: as §2

[8] = system: large crabgrass (Digitaria sanguinalis); assay: Test A pre-/postemergence plant response
In short: as §2

corn (Zea mays) = assay: Test A pre-/postemergence plant response
In short: as §2

[9] = system: bermudagrass (Cynodon dactylon); assay: Test B pre-/postemergence plant response
In short: (§3)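 Visual scoring from 0 (no effect) to 100 (complete control) against untreated controls was done 13 to 15 days after greenhouse treatment. Chemicals were formulated in a surfactant-containing non-phytotoxic solvent and applied to soil preemergence or to 1- to 4-leaf (2-18 cm) plants postemergence.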

[10] = system: johnsongrass (Sorghum halepense); assay: Test B pre-/postemergence plant response; details: for Johnsongrass plant response rating: 8 g ai/ha
In short: as §3

[11] = system: Italian ryegrass (Lolium multiflorum); assay: Test B pre-/postemergence plant response; details: for Ryegrass, Italian plant response rating: 8 g ai/ha
In short: as §3

[12] = 8 g ai/ha, postemergence, 0-100 scale
[13] = 31 g ai/ha, scale 0 to 100, 0 no effect, 100 complete control
[14] = 62 g ai/ha, scale 0 to 100, 0 no effect, 100 complete control
[15] = Postemergence, 31 g ai/ha, 0 to 100 scale, 0 no effect, 100 complete control
[16] = Postemergence, 125 g ai/ha, 0 to 100 scale, 0 no effect, 100 complete control
[17] = Preemergence, 125 g ai/ha, 0 to 100 scale (0 no effect, 100 complete control)
[18] = Preemergence, 31 g ai/ha, 0 to 100 scale, 0 is no effect, 100 is complete control
[19] = Postemergence, 16 g ai/ha, scale 0 to 100
[20] = Postemergence, 31 g ai/ha, scale 0 to 100, 0 no effect, 100 complete control
[21] = Postemergence, 62 g ai/ha, scale 0 to 100, 0 no effect, 100 complete control
[22] = Preemergence, 16 g ai/ha, scale 0 to 100 (0 no effect, 100 complete control)
[23] = Preemergence, 31 g ai/ha, 0 to 100 scale, 0 no effect, 100 complete control
[24] = Preemergence, 62 g ai/ha, scale 0 to 100
[25] = Postemergence, 500 g ai/ha, 0 to 100 scale, 0 no effect, 100 complete control
[26] = Preemergence, 500 g ai/ha, 0 to 100 scale (0 no effect, 100 complete control)
[27] = Postemergence, 62 g ai/ha, scale 0 to 100
[28] = Postemergence, 125 g ai/ha, scale 0 to 100
[29] = Postemergence, 250 g ai/ha, scale 0 to 100
[30] = Preemergence, 125 g ai/ha, scale 0 to 100
[31] = Preemergence, 250 g ai/ha, scale 0 to 100

Compound: Cc1cc(-c2ccc(Cl)cc2)nn1-c1c(OC(=O)c2cccc(Cl)c2)cnn(C)c1=O [Compound 32]
- Barley plant response rating [1, 12]: 0
- Plant response rating, Barley ([1]; 16 g ai/ha, scale 0 to 100, 0 no effect, 100 complete control): 0
- Plant response rating, Barley [1, 13]: 0
- Plant response rating, Barley [1, 14]: 0
- Canarygrass plant response rating [2, 12]: 0
- Plant response rating, Canarygrass ([2]; 16 g ai/ha, scale 0 to 100): 10
- Plant response rating, Canarygrass [2, 13]: 10
- Plant response rating, Canarygrass [2, 14]: 30
- Windgrass plant response rating [3, 12]: 0
- Plant response rating, Windgrass ([3]; 16 g ai/ha, scale 0 to 100): 0
- Plant response rating, Windgrass [3, 14]: 50
- Chickweed plant response rating [4, 12]: 0
- Plant response rating, Chickweed ([4]; 16 g ai/ha, scale 0 to 100): 0
- Plant response rating, Chickweed [4, 13]: 0
- Plant response rating, Chickweed [4, 14]: 20
- Plant response rating, Pigweed [5, 15]: 0
- Plant response rating, Pigweed [5, 16]: 10
- Plant response rating, Pigweed [5, 17]: 0
- Plant response rating, Barnyardgrass [6, 15]: 0
- Plant response rating, Barnyardgrass [6, 16]: 70
- Plant response rating, Barnyardgrass [6, 18]: 20
- Plant response rating, Barnyardgrass [6, 17]: 90
- Plant response rating, Morningglory [7, 15]: 0
- Plant response rating, Morningglory [7, 16]: 0
- Plant response rating, Morningglory [7, 18]: 0
- Plant response rating, Morningglory [7, 17]: 0
- Plant response rating, Crabgrass, Large [8, 15]: 10
- Plant response rating, Crabgrass, Large [8, 16]: 70
- Plant response rating, Crabgrass, Large [8, 18]: 90
- Plant response rating, Crabgrass, Large [8, 17]: 90
- Plant response rating, Corn (corn (Zea mays); [15]): 0
- Plant response rating, Corn (corn (Zea mays); [16]): 50
- Plant response rating, Corn (corn (Zea mays); [18]): 0
- Plant response rating, Corn (corn (Zea mays); [17]): 60
- Bermudagrass plant response rating [9, 12]: 60
- Plant response rating, Bermudagrass [9, 19]: 65
- Plant response rating, Bermudagrass [9, 20]: 100
- Plant response rating, Bermudagrass [9, 21]: 100
- Bermudagrass plant response rating ([9]; Preemergence, 8 g ai/ha, scale 0 to 100 (0 no effect, 100 complete control)): 0
- Plant response rating, Bermudagrass [9, 22]: 0
- Plant response rating, Bermudagrass [9, 23]: 0
- Plant response rating, Bermudagrass [9, 24]: 0
- Johnsongrass plant response rating ([10]; postemergence, 0-100 scale): 50
- Plant response rating, Johnsongrass [10, 19]: 70
- Plant response rating, Johnsongrass [10, 20]: 98
- Plant response rating, Johnsongrass [10, 21]: 98
- Plant response rating, Johnsongrass [10, 22]: 75
- Plant response rating, Johnsongrass [10, 23]: 85
- Plant response rating, Johnsongrass [10, 24]: 90
- Johnsongrass plant response rating ([10]; Preemergence, scale 0 to 100): 65
- Ryegrass, Italian plant response rating ([11]; postemergence, 0-100 scale): 5
- Plant response rating, Ryegrass, Italian [11, 19]: 85
- Plant response rating, Ryegrass, Italian [11, 20]: 95
- Plant response rating, Ryegrass, Italian [11, 21]: 95
- Plant response rating, Ryegrass, Italian [11, 22]: 100
- Plant response rating, Ryegrass, Italian [11, 23]: 100
- Plant response rating, Ryegrass, Italian [11, 24]: 100
- Ryegrass, Italian plant response rating ([11]; Preemergence, scale 0 to 100): 90

Compound: Cc1cc(-c2ccc(Br)cc2)nn1-c1c(OC(=O)C2CC2)cnn(C)c1=O [Compound 5]
- Plant response rating, Barley [1, 13]: 30
- Plant response rating, Barley ([1]; 62 g ai/ha, scale 0 to 100): 90
- Plant response rating, Barley ([1]; 125 g ai/ha, scale 0 to 100): 95
- Plant response rating, Barley ([1]; 250 g ai/ha, scale 0 to 100): 95
- Plant response rating, Canarygrass [2, 13]: 80
- Plant response rating, Canarygrass ([2]; 62 g ai/ha, scale 0 to 100): 100
- Plant response rating, Canarygrass ([2]; 125 g ai/ha, scale 0 to 100): 100
- Plant response rating, Canarygrass ([2]; 250 g ai/ha, scale 0 to 100): 100
- Plant response rating, Windgrass [3, 13]: 95
- Plant response rating, Windgrass ([3]; 62 g ai/ha, scale 0 to 100): 100
- Plant response rating, Windgrass ([3]; 125 g ai/ha, scale 0 to 100): 100
- Plant response rating, Windgrass ([3]; 250 g ai/ha, scale 0 to 100): 100
- Plant response rating, Chickweed [4, 13]: 0
- Plant response rating, Chickweed ([4]; 62 g ai/ha, scale 0 to 100): 0
- Plant response rating, Chickweed ([4]; 125 g ai/ha, scale 0 to 100): 0
- Plant response rating, Chickweed ([4]; 250 g ai/ha, scale 0 to 100): 0
- Plant response rating, Pigweed [5, 16]: 0
- Plant response rating, Pigweed [5, 25]: 0
- Plant response rating, Pigweed [5, 17]: 0
- Plant response rating, Pigweed [5, 26]: 0
- Plant response rating, Barnyardgrass [6, 16]: 100
- Plant response rating, Barnyardgrass [6, 25]: 100
- Plant response rating, Barnyardgrass [6, 17]: 90
- Plant response rating, Barnyardgrass [6, 26]: 100
- Plant response rating, Morningglory [7, 16]: 0
- Plant response rating, Morningglory [7, 25]: 0
- Plant response rating, Morningglory [7, 17]: 0
- Plant response rating, Morningglory [7, 26]: 0
- Plant response rating, Crabgrass, Large [8, 16]: 100
- Plant response rating, Crabgrass, Large [8, 25]: 100
- Plant response rating, Crabgrass, Large [8, 17]: 100
- Plant response rating, Crabgrass, Large [8, 26]: 100
- Plant response rating, Corn (corn (Zea mays); [16]): 100
- Plant response rating, Corn (corn (Zea mays); [25]): 100
- Plant response rating, Corn (corn (Zea mays); [17]): 80
- Plant response rating, Corn (corn (Zea mays); [26]): 90
- Bermudagrass plant response rating ([9]; 250 g ai/ha, preemergence, 0-100 scale): 100
- Plant response rating, Bermudagrass [9, 20]: 100
- Plant response rating, Bermudagrass [9, 27]: 100
- Plant response rating, Bermudagrass [9, 28]: 100
- Plant response rating, Bermudagrass [9, 29]: 100
- Plant response rating, Bermudagrass [9, 23]: 98
- Plant response rating, Bermudagrass [9, 24]: 100
- Plant response rating, Bermudagrass [9, 30]: 100
- Plant response rating, Johnsongrass [10, 20]: 0
- Plant response rating, Johnsongrass [10, 27]: 0
- Plant response rating, Johnsongrass [10, 28]: 85
- Plant response rating, Johnsongrass [10, 29]: 90
- Plant response rating, Johnsongrass [10, 23]: 0
- Plant response rating, Johnsongrass [10, 24]: 100
- Plant response rating, Johnsongrass [10, 30]: 100
- Plant response rating, Johnsongrass [10, 31]: 100
- Plant response rating, Ryegrass, Italian [11, 20]: 100
- Plant response rating, Ryegrass, Italian [11, 27]: 100
- Plant response rating, Ryegrass, Italian [11, 28]: 100
- Plant response rating, Ryegrass, Italian [11, 29]: 100
- Plant response rating, Ryegrass, Italian [11, 23]: 100
- Plant response rating, Ryegrass, Italian [11, 24]: 100
- Plant response rating, Ryegrass, Italian [11, 30]: 100
- Plant response rating, Ryegrass, Italian [11, 31]: 100
